Measured values: patent US10988523B2, “Modified lipidated Relaxin B chain peptides and their therapeutic use” (Sanofi, priority 2018, dated 2021)
*1 amine or outer side, *2 acyl side, *3 side chain or, on linkers, in order; H or OH if unused. Where a SMILES comes first, the peptide text is derived from it. Side-chain parts run from the residue outwards. [ ]: non-standard residue; d: D form. The star is where a group is joined. PEG12 = NCCOCCOCCOCCOCCOCCOCCOCCOCCOCCOCCOCCOCCC(=O)O; γGlu = O=C(O)[C@H](CCC(=O)[*:2])N[*:1]; Stearoyl = CCCCCCCCCCCCCCCCCC(=O)*; Palmitoyl = CCCCCCCCCCCCCCCC(=O)*; Cit = NC(=O)NCCC[C@H](N)C(=O)O; αMeK = C[C@](N)(CCCCN)C(=O)O; Lauroyl = CCCCCCCCCCCC(=O)*; Nle = CCCC[C@H](N)C(=O)O; AEEA = NCCOCCOCC(=O)O; Aib = CC(C)(N)C(=O)O

Target: T1, RXFP1 (Homo sapiens, UniProt Q9HBX9)
T1 construct: OVCAR5 cells expressing endogenous RXFP1; endogenous in cells; host or cells: OVCAR5 cells
T1 sequence (Q9HBX9 1-757): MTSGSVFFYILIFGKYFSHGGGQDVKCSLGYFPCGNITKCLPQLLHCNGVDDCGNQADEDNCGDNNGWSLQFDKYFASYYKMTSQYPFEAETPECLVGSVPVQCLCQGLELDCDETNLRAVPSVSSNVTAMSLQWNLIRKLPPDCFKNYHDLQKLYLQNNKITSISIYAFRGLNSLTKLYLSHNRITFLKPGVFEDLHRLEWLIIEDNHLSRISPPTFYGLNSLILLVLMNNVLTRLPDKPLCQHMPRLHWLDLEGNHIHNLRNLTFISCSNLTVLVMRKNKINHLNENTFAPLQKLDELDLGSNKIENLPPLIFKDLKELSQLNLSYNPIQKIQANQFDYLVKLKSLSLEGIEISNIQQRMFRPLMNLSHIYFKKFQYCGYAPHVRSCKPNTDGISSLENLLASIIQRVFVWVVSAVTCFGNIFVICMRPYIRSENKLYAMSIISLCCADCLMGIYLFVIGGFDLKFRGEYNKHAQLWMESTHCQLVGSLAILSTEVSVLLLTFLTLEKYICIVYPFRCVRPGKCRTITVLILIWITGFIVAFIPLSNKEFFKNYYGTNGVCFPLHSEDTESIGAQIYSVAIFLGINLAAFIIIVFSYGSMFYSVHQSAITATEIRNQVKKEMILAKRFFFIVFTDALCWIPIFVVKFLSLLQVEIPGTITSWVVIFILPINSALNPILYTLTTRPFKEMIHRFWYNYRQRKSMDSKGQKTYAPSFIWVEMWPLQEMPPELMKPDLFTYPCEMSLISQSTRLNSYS
Assay: OVCAR5 cAMP assay (HTRF), RXFP1 agonist activity
Assay type: cell-based
Details: for EC50: OVCAR5 cells, cAMP HTRF, read-out: EC50 (nM), OVCAR 5 cells (cAMP); for Emax: OVCAR-5, maximal cAMP relative to H2-relaxin maximum (100%), read-out: EMax, OVCAR 5 cells (cAMP)
In short: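 cAMP accumulation readout: after 1 mM IBMX for 40 min, endogenous-RXFP1 OVCAR5 cells got rising peptide concentrations without FCS, 30 min, 37° C, then lysis with HTRF cAMP reagents. Nonlinear regression gave EC50; Emax expressed relative to H2-relaxin maximum, same occasion.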

| Structure (SMILES) | EC50 [nM] | Emax [%] |
| --- | --- | --- |
| CCCCCCCCCCCCCCCC(=O)N[C@@H](CCC(=O)N[C@@H](CCC(=O)N[C@@H](CCC(=O)NCCOCCOCC(=O)NCCOCCOCC(=O)NCCOCCOCC(=O)NCCOCCOCC(=O)NCCCC[C@H](NC(=O)[C@H](CCCCNC(C)=O)NC(=O)[C@H](CCCCN)NC(=O)[C@H](CCCNC(=N)N)NC(=O)C(C)(C)NC(=O)[C@H](CO)NC(=O)[C@H](Cc1ccccc1)NC(=O)[C@@H](NC(=O)[C@H](CO)NC(=O)[C@H](CCCC)NC(=O)CNC(=O)[C@H](CCC(=O)O)NC(=O)C(C)(C)NC(=O)C(C)(C)NC(=O)[C@@H](NC(=O)[C@H](CCCCNC(C)=O)NC(=O)[C@H](C)NC(=O)[C@H](CCCNC(=N)N)NC(=O)[C@@H](NC(=O)[C@H](CCCCN)NC(=O)[C@H](CCC(=O)O)NC(=O)[C@H](CCCNC(=N)N)NC(=O)CNC(=O)[C@H](CCC(=O)O)NC(=O)[C@H](CC(C)C)NC(C)=O)C(C)C)[C@@H](C)CC)[C@@H](C)O)C(N)=O)C(=O)O)C(=O)O)C(=O)O [compound 153] (Ac-LEGREKVRAK(Ac)I[Aib][Aib]EG[Nle]STFS[Aib]RKK(Ac)K([AEEA-AEEA-AEEA-AEEA-γGlu-γGlu-γGlu-Palmitoyl])-NH2) | 0.26 | 89 |
| CCCCCCCCCCCCCCCC(=O)N[C@@H](CCC(=O)N[C@@H](CCC(=O)N[C@@H](CCC(=O)NCCOCCOCC(=O)NCCOCCOCC(=O)NCCCC[C@H](NC(=O)[C@H](CCCCN)NC(=O)[C@H](CCCCN)NC(=O)[C@H](CCCNC(=N)N)NC(=O)C(C)(C)NC(=O)[C@H](CO)NC(=O)[C@H](Cc1c[nH]c2ccccc12)NC(=O)[C@@H](NC(=O)[C@H](CO)NC(=O)[C@H](CCCCNC(C)=O)NC(=O)CNC(=O)[C@H](CCC(=O)O)NC(=O)C(C)(C)NC(=O)C(C)(C)NC(=O)[C@@H](NC(=O)[C@H](CCCCNC(C)=O)NC(=O)[C@H](C)NC(=O)[C@H](CCCNC(=N)N)NC(=O)[C@@H](NC(=O)[C@H](CCCCN)NC(=O)[C@H](CCC(=O)O)NC(=O)[C@H](CCCNC(=N)N)NC(=O)CNC(=O)[C@H](CCC(=O)O)NC(=O)[C@H](CC(C)C)NC(C)=O)C(C)C)[C@@H](C)CC)[C@@H](C)O)C(N)=O)C(=O)O)C(=O)O)C(=O)O [compound 61] (Ac-LEGREKVRAK(Ac)I[Aib][Aib]EGK(Ac)STWS[Aib]RKKK([AEEA-AEEA-γGlu-γGlu-γGlu-Palmitoyl])-NH2) | 0.17 | 93 |
| CCCCCCCCCCCC(=O)N[C@@H](CCC(=O)N[C@@H](CCC(=O)N[C@@H](CCC(=O)NCCOCCOCC(=O)NCCOCCOCC(=O)NCCOCCOCC(=O)NCCCC[C@H](NC(=O)[C@H](CCCCNC(C)=O)NC(=O)[C@H](CCCCN)NC(=O)[C@H](CCCNC(=N)N)NC(=O)C(C)(C)NC(=O)[C@H](CO)NC(=O)[C@H](Cc1c[nH]c2ccccc12)NC(=O)[C@@H](NC(=O)[C@H](CO)NC(=O)[C@H](CCCC)NC(=O)CNC(=O)[C@H](CCC(=O)O)NC(=O)C(C)(C)NC(=O)C(C)(C)NC(=O)[C@@H](NC(=O)[C@H](CCCCNC(C)=O)NC(=O)[C@H](C)NC(=O)[C@H](CCCNC(=N)N)NC(=O)[C@@H](NC(=O)[C@H](CCCCN)NC(=O)[C@H](CCC(=O)O)NC(=O)[C@H](CCCNC(=N)N)NC(=O)CNC(=O)[C@H](CCC(=O)O)NC(=O)[C@H](CC(C)C)NC(C)=O)C(C)C)[C@@H](C)CC)[C@@H](C)O)C(N)=O)C(=O)O)C(=O)O)C(=O)O [compound 120] (Ac-LEGREKVRAK(Ac)I[Aib][Aib]EG[Nle]STWS[Aib]RKK(Ac)K([AEEA-AEEA-AEEA-γGlu-γGlu-γGlu-Lauroyl])-NH2) |  | 92 |
| CCCCCCCCCCCCCCCC(=O)N[C@@H](CCC(=O)NCCCC[C@H](NC(=O)CC[C@H](NC(=O)CC[C@H](NC(=O)COCCOCCNC(=O)COCCOCCNC(=O)COCCOCCNC(=O)[C@H](CCCCNC(C)=O)NC(=O)[C@H](CCCCN)NC(=O)[C@H](CCCNC(=N)N)NC(=O)C(C)(C)NC(=O)[C@H](CO)NC(=O)[C@H](Cc1c[nH]c2ccccc12)NC(=O)[C@@H](NC(=O)[C@H](CO)NC(=O)[C@H](CCCC)NC(=O)CNC(=O)[C@H](CCC(=O)O)NC(=O)C(C)(C)NC(=O)C(C)(C)NC(=O)[C@@H](NC(=O)[C@H](CCCCNC(C)=O)NC(=O)[C@H](C)NC(=O)[C@H](CCCNC(=N)N)NC(=O)[C@@H](NC(=O)[C@H](CCCCN)NC(=O)[C@H](CCC(=O)O)NC(=O)[C@H](CCCNC(=N)N)NC(=O)CNC(=O)[C@H](CCC(=O)O)NC(=O)[C@H](CC(C)C)NC(C)=O)C(C)C)[C@@H](C)CC)[C@@H](C)O)C(=O)O)C(=O)O)C(N)=O)C(=O)O [compound 117] (Ac-LEGREKVRAK(Ac)I[Aib][Aib]EG[Nle]STWS[Aib]RKK(Ac)[AEEA][AEEA][AEEA][γGlu][γGlu]K([γGlu-Palmitoyl])-NH2) |  | 86 |

Next, values leading:

| EC50 [nM] | Emax [%] | Structure (SMILES) |
| --- | --- | --- |
| 0.4 | 88 | CCCCCCCCCCCCCCCC(=O)N[C@@H](CCC(=O)N[C@@H](CCC(=O)N[C@@H](CCC(=O)N[C@@H](CCC(=O)NCCCC[C@H](NC(=O)COCCOCCNC(=O)COCCOCCNC(=O)COCCOCCNC(=O)COCCOCCNC(=O)[C@H](CCCCNC(C)=O)NC(=O)[C@H](CCCCN)NC(=O)[C@H](CCCNC(=N)N)NC(=O)[C@](C)(CCCCN)NC(=O)[C@H](CO)NC(=O)[C@H](Cc1ccccc1)NC(=O)[C@@H](NC(=O)[C@H](CO)NC(=O)[C@H](CCCC)NC(=O)CNC(=O)[C@H](CCC(=O)O)NC(=O)C(C)(C)NC(=O)C(C)(C)NC(=O)[C@@H](NC(=O)[C@H](CCCCNC(C)=O)NC(=O)[C@H](C)NC(=O)[C@H](CCCNC(=N)N)NC(=O)[C@@H](NC(=O)[C@H](CCCCN)NC(=O)[C@H](CCC(=O)O)NC(=O)[C@H](CCCNC(=N)N)NC(=O)CNC(=O)[C@H](CCC(=O)O)NC(=O)[C@H](CC(C)C)NC(C)=O)C(C)C)[C@@H](C)CC)[C@@H](C)O)C(N)=O)C(=O)O)C(=O)O)C(=O)O)C(=O)O [compound 143] (Ac-LEGREKVRAK(Ac)I[Aib][Aib]EG[Nle]STFS[αMeK]RKK(Ac)[AEEA][AEEA][AEEA][AEEA]K([γGlu-γGlu-γGlu-γGlu-Palmitoyl])-NH2) |
| 0.61 | 79 | CCCCCCCCCCCCCCCCCC(=O)N[C@@H](CCC(=O)N[C@@H](CCC(=O)N[C@@H](CCC(=O)NCCCC[C@H](NC(=O)CCOCCOCCOCCOCCOCCOCCOCCOCCOCCOCCOCCOCCNC(=O)[C@H](CCCCNC(C)=O)NC(=O)[C@H](CCCCN)NC(=O)[C@H](CCCNC(=N)N)NC(=O)C(C)(C)NC(=O)[C@H](CO)NC(=O)[C@H](Cc1ccc(O)cc1)NC(=O)[C@@H](NC(=O)[C@H](CO)NC(=O)[C@H](CCCC)NC(=O)CNC(=O)[C@H](CCC(=O)O)NC(=O)C(C)(C)NC(=O)C(C)(C)NC(=O)[C@@H](NC(=O)[C@H](CCCCNC(C)=O)NC(=O)[C@H](C)NC(=O)[C@H](CCCNC(=N)N)NC(=O)[C@@H](NC(=O)[C@H](CCCCN)NC(=O)[C@H](CCC(=O)O)NC(=O)[C@H](CCCNC(=N)N)NC(=O)CNC(=O)[C@H](CCC(=O)O)NC(=O)[C@H](CC(C)C)NC(C)=O)C(C)C)[C@@H](C)CC)[C@@H](C)O)C(N)=O)C(=O)O)C(=O)O)C(=O)O [compound 46] (Ac-LEGREKVRAK(Ac)I[Aib][Aib]EG[Nle]STYS[Aib]RKK(Ac)[PEG12]K([γGlu-γGlu-γGlu-Stearoyl])-NH2) |
|  | 91 | CCCCCCCCCCCCCCCCCC(=O)N[C@@H](CCC(=O)N[C@@H](CCC(=O)N[C@@H](CCC(=O)NCCOCCOCC(=O)NCCOCCOCC(=O)NCCOCCOCC(=O)NCCCC[C@H](NC(=O)[C@H](CCCCNC(C)=O)NC(=O)[C@H](C)NC(=O)[C@H](CCCNC(N)=O)NC(=O)C(C)(C)NC(=O)[C@H](CO)NC(=O)[C@H](Cc1c[nH]c2ccccc12)NC(=O)[C@@H](NC(=O)[C@H](CO)NC(=O)[C@H](CCCC)NC(=O)CNC(=O)[C@H](CCC(=O)O)NC(=O)C(C)(C)NC(=O)C(C)(C)NC(=O)[C@@H](NC(=O)[C@H](CCCCNC(C)=O)NC(=O)[C@H](C)NC(=O)[C@H](CCCNC(=N)N)NC(=O)[C@@H](NC(=O)[C@H](CCCCN)NC(=O)[C@H](CCC(=O)O)NC(=O)[C@H](CCCNC(=N)N)NC(=O)CNC(=O)[C@H](CCC(=O)O)NC(=O)[C@H](CC(C)C)NC(C)=O)C(C)C)[C@@H](C)CC)[C@@H](C)O)C(N)=O)C(=O)O)C(=O)O)C(=O)O [compound 126] (Ac-LEGREKVRAK(Ac)I[Aib][Aib]EG[Nle]STWS[Aib][Cit]AK(Ac)K([AEEA-AEEA-AEEA-γGlu-γGlu-γGlu-Stearoyl])-NH2) |
